Experimental data published in ChEMBL document CHEMBL2346531, “Investigation of σ receptors agonist/antagonist activity through N-(6-methoxytetralin-1-yl)- and N-(6-methoxynaphthalen-1-yl)alkyl derivatives of polymethylpiperidines” (Bioorg Med Chem, 2013).
Calls of active or inactive are those of the source. No cut-off for these calls is given here.

Columns and labels:
MCF7 [1] = experiment: Antiproliferative activity against human MCF7 cells transfected with human sigma1 receptor after 48 hrs by MTT assay; format: functional, cell-based; parameters: Activity: concentration or dose not given beside the values; conditions: for EC50: Homo sapiens, MCF7, 48 h
MCF7 [2] = experiment: Antiproliferative activity against human MCF7 cells after 48 hrs by MTT assay; format: functional, cell-based; conditions: for EC50: Homo sapiens, MCF7, 48 h
[3] = Displacement of [3H]DTG from sigma 2 receptor in Wistar Hannover rat liver membrane by competition binding assay; format: cell membranes
[4] = Selectivity ratio of Ki for sigma 2 receptor in Wistar Hannover rat liver membrane to Ki for sigma 1 receptor in Dunkin guinea pig brain membrane without cerebellum; format: cell membranes
[5] = target: Sigma non-opioid intracellular receptor 1 (Cavia porcellus, UniProt Q60492); experiment: Displacement of [3H]pentazocine from sigma 1 receptor in Dunkin guinea pig brain membrane without cerebellum by competition binding assay; format: cell membranes
Sigma non-opioid intracellular receptor 1, sequence (Q60492 whole entry): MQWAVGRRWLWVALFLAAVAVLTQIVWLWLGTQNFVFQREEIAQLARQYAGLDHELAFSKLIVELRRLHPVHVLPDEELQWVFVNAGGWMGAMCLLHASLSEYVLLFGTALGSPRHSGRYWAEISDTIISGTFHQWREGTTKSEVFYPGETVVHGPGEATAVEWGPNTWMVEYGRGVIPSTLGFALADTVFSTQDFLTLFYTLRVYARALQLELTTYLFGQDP

MCF7 [6] = experiment: Antagonist activity at sigma 2 receptor in human MCF7 cells assessed as effect on bradykinin-triggered Ca2+ response at 1 uM pretreated for 10 mins measured every 5 secs by fluorescence analysis; format: cell-based
[7] = target: Sigma non-opioid intracellular receptor 1 (Homo sapiens) (UniProt Q99720); experiment: Agonist activity at human sigma 1 receptor transfected in human MCF7 cells assessed as increase in bradykinin-triggered Ca2+ response at 1 uM pretreated for 10 mins measured every 5 secs by fluorescence analysis; format: cell-based
Sigma non-opioid intracellular receptor 1 (Homo sapiens), sequence (Q99720 whole entry): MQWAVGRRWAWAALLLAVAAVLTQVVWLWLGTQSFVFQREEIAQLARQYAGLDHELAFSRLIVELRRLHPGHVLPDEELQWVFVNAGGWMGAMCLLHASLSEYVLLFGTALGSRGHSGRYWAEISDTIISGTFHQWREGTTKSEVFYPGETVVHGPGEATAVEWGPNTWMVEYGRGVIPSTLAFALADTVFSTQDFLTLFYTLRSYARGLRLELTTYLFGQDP

MCF7 [8] = experiment: Activity at sigma 2 receptor in human MCF7 cells assessed as Ca2+ mobilization by fluorescence analysis; format: cell-based
[9] = target: Sigma non-opioid intracellular receptor 1 (Homo sapiens) (UniProt Q99720); experiment: Activity at human sigma 1 receptor transfected in human MCF7 cells assessed as Ca2+ mobilization by fluorescence analysis; format: cell-based
[10] = target: Sigma non-opioid intracellular receptor 1 (Homo sapiens) (UniProt Q99720); experiment: Agonist activity at human sigma 1 receptor transfected in human MCF7 cells assessed as increase in bradykinin-triggered Ca2+ response at 1 uM pretreated for 10 mins measured every 5 secs by fluorescence analysis in presence of 1 uM sigma 1 receptor antagonist, BD1063; format: cell-based
MCF7 [11] = experiment: Agonist activity at sigma 2 receptor in human MCF7 cells assessed as decrease in bradykinin-induced Ca2+ response at 1 uM pretreated for 10 mins measured every 5 secs by fluorescence analysis in presence of 10 uM sigma 2 receptor antagonist, AC927; format: cell-based
MCF7 [12] = experiment: Agonist activity at sigma 2 receptor in human MCF7 cells assessed as decrease in bradykinin-induced Ca2+ response at 1 uM pretreated for 10 mins measured every 5 secs by fluorescence analysis; format: cell-based
[13] = target: Sigma non-opioid intracellular receptor 1 (Homo sapiens) (UniProt Q99720); experiment: Antagonist activity at human sigma 1 receptor transfected in human MCF7 cells assessed as decrease in bradykinin-triggered Ca2+ response at 1 uM pretreated for 10 mins measured every 5 secs by fluorescence analysis; format: cell-based
[14] = target: Sigma non-opioid intracellular receptor 1 (Homo sapiens) (UniProt Q99720); experiment: Antagonist activity at human sigma 1 receptor transfected in human MCF7 cells assessed as decrease in bradykinin-triggered Ca2+ response at 1 uM pretreated for 10 mins measured every 5 secs by fluorescence analysis in presence of 1 uM sigma 1 receptor agonist, (+)-pentazocine; format: cell-based
MCF7 [15] = experiment: Antagonist activity at sigma 2 receptor in human MCF7 cells assessed as effect on bradykinin-triggered Ca2+ response at 10 uM pretreated for 10 mins measured every 5 secs by fluorescence analysis; format: cell-based
MCF7 [16] = experiment: Activity at sigma 2 receptor in human MCF7 cells assessed as bardykinin-triggered Ca2+ mobilization at 1 uM pretreated for 10 mins measured every 5 secs by fluorescence analysis; format: cell-based

Structure (SMILES)	EC50 (MCF7 [1])	EC50 (MCF7 [2])	Ki [3]	Ratio Ki [4]	Ki [5]	other results
COc1ccc2c(c1)CCCC2CCCN1C(C)(C)CCCC1(C)C (stereo not drawn)	> 100 µM	> 100 µM	0.641 µM	1.7	0.373 µM	
COc1ccc2c(CCCCN3CCCCC3(C)C)cccc2c1	100 µM	100 µM	0.0286 µM	1.3		Activity (MCF7 [1]): 18%; Activity (MCF7 [2]): 19%
COc1ccc2c(c1)CCCC2CCCN1CCCCC1(C)C (stereo not drawn)	> 100 µM	> 100 µM	0.115 µM	0.6		
COc1ccc2c(CCCN3CCCCC3(C)C)cccc2c1	> 100 µM	> 100 µM	0.094 µM	0.09		
COc1ccc2c(CCCN3[C@H](C)CCC[C@@H]3C)cccc2c1	> 100 µM	> 100 µM	0.0454 µM	6.1	0.00743 µM	Activity (MCF7 [6]): Active; Activity [7]: Active; Activity (MCF7 [8]): inactive; Activity [9]: inactive; Activity [10]: inactive
COc1ccc2c(c1)CCCC2CCCCN1C(C)(C)CCCC1(C)C (stereo not drawn)	> 100 µM	> 100 µM	0.0698 µM	1.9	0.0359 µM	
COc1ccc2c(CCCCN3[C@H](C)CCC[C@@H]3C)cccc2c1.Cl	100 µM	100 µM	0.0138 µM	0.7	0.0185 µM	Activity (MCF7 [1]): 12%; inhibition (MCF7 [11]): inactive; Activity (MCF7 [2]): 14%; Activity [7]: Active; Activity (MCF7 [8]): inactive; Activity [9]: inactive; inhibition (MCF7 [12]): Active
COc1ccc2c(CCCN3C(C)(C)CCCC3(C)C)cccc2c1	> 100 µM	> 100 µM	0.495 µM	2.1	0.236 µM	
COc1ccc2c(c1)CCCC2CCCN1[C@H](C)CCC[C@@H]1C (stereo partly drawn)	> 100 µM	> 100 µM	0.0909 µM	0.8	0.11 µM	Activity (MCF7 [6]): Active; Activity [7]: Active; Activity (MCF7 [8]): inactive; Activity [9]: inactive
COc1cccc2c1CCCC2CCCN1CCN(C2CCCCC2)CC1 (stereo not drawn)	31.2 µM	27.4 µM				
Cc1ccccc1NC(=N)Nc1ccccc1C [DITOLYLGUANIDINE]			0.0302 µM			
COc1ccc2c(c1)CCCC2CCCCN1[C@H](C)CCC[C@@H]1C (stereo partly drawn)	100 µM	> 100 µM	0.0111 µM	1.3	0.00867 µM	Activity (MCF7 [6]): Active; Activity (MCF7 [1]): 14%; Activity (MCF7 [8]): inactive; inhibition [13]: Active; Activity [9]: inactive; inhibition [14]: inactive
CN1CCN(CCc2ccc(Cl)c(Cl)c2)CC1	70 µM	> 100 µM				
COc1ccc2c(CCCCN3C(C)(C)CCCC3(C)C)cccc2c1	> 100 µM	> 100 µM	0.0907 µM	1	0.0886 µM	
c1ccc(CCN2CCCCC2)cc1	> 100 µM	> 100 µM				Activity (MCF7 [15]): Active
CC(C)=CCN1CC[C@]2(C)c3cc(O)ccc3C[C@H]1[C@H]2C [(+)-PENTAZOCINE]	> 100 µM	> 100 µM				Activity (MCF7 [16]): inactive
COc1ccc2c(c1)CCCC2CCCCN1CCCCC1(C)C (stereo not drawn)	100 µM	100 µM	0.0295 µM	9		Activity (MCF7 [1]): 14%; Activity (MCF7 [2]): 20%
